Experimental data reported in US20230174507A1, “IMIDAZOLE 3-OXIDE DERIVATIVE BASED ACSS2 INHIBITORS AND METHODS OF USE THEREOF” (METABOMED LTD., priority 2020, published 2023).

Key:
[1] = target: T1, ACSS2 in MDA-MB-468 cells (Homo sapiens, UniProt Q9NR19); assay: Cellular fatty-acid IC50: 13C-acetate incorporation into fatty acids (palmitate), LC-MS; type: cell-based; settings: hypoxic conditions (1% O2), 75% charcoal stripped serum, 5 hours, 13C-acetate into palmitate, read-out: Cellular Fatty-acid IC50 High Serum MDA468
T1 construct: endogenous in cells; host or cells: MDA-MB-468 cells, hypoxia (1% O2)
T1 sequence (Q9NR19 whole entry): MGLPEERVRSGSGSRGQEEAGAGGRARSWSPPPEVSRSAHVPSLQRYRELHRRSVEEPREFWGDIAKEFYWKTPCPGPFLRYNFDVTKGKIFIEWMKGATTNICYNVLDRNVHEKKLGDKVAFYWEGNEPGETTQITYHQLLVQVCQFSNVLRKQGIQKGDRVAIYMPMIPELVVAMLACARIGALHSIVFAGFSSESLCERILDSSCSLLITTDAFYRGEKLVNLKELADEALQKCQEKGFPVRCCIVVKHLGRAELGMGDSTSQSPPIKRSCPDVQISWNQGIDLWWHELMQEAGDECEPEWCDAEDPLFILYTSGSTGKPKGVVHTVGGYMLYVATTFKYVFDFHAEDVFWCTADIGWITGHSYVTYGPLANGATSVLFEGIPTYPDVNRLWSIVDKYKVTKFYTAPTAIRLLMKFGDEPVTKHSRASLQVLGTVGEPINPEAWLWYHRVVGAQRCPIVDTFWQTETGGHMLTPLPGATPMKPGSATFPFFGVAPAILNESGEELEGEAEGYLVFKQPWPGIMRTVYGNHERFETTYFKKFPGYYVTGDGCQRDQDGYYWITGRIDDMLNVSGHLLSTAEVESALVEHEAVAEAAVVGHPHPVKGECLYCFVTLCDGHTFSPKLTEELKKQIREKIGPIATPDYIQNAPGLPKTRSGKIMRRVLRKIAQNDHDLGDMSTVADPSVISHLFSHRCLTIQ
How it was run: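 MDA-MB-468 cells under hypoxia (1% O2) treated 5 h with compound (0.000512-1000 nM) in medium with 75% charcoal-stripped serum and 0.5 mM 13C-acetate. 13C-palmitate quantified by LC-MS (negative ion, RSIM). IC50 from inhibition versus no-compound control, background-subtracted, constrained 0–100% nonlinear fit.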

[2] = target: T2, human ACSS2 protein (Homo sapiens, UniProt Q9NR19); assay: ACSS2 cell-free activity assay (pyrophosphatase-coupled, Biomol green); settings: 10 nM human ACSS2, 90 minutes at 37 C, absorbance at 620 nm; read-out: ACSS2 Biochemical IC50
T2 construct: purchased OriGene Technologies, Inc
T2 sequence (Q9NR19 whole entry): as above
How it was run: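 10 nM human ACSS2 incubated 90 min at 37 C with compound, 300 μM ATP, 10 μM CoA, 5 mM NaAc in pH 7.5 Hepes buffer with 0.5 U/ml pyrophosphatase. Released phosphate detected with Biomol Green at 620 nm; IC50 by non-linear regression constrained to 0% and 100%.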

[3] = target: T3, human ACSS1 protein (Homo sapiens, UniProt Q9NUB1); assay: ACSS1 cell-free activity assay (pyrophosphatase-coupled, Biomol green); type: biochemical; settings: 5 nM human ACSS1, 30 minutes at room temperature, absorbance at 620 nm; for IC50: read-out: ACSS1 Biochemical IC50
T3 construct: purchased MyBioSource
T3 sequence (Q9NUB1 38-689): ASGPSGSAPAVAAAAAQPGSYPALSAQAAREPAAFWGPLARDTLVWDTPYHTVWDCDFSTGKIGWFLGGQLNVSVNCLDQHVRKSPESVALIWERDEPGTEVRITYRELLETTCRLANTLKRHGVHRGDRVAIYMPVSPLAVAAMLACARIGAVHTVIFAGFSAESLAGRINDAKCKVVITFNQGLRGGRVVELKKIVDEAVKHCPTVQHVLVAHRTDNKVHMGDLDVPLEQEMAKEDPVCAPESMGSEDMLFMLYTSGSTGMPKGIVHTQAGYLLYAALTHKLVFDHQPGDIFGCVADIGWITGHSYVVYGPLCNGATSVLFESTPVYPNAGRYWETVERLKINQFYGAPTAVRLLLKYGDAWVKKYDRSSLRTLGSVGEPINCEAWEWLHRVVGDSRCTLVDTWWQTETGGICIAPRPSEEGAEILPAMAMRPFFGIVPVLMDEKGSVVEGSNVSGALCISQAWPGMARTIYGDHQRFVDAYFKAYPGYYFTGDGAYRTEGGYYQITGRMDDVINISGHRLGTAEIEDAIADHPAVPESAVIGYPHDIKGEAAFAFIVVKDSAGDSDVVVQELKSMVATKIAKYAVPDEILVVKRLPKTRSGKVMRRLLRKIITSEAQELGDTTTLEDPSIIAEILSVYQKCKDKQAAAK
How it was run: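 5 nM human ACSS1 incubated 30 min at RT with compound in pH 7.5 Hepes buffer with 15 μM CoA, 5 mM acetate, 300 μM ATP, 2 mM MgCl2 and pyrophosphatase. Released phosphate detected with Biomol Green (30 min), absorbance 620 nm. IC50 from constrained non-linear regression.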

| SMILES | IC50 [1] [nM] | IC50 [2] [nM] | ACSS1 Biochemical IC50 (nM) [3] | IC50 [3] [nM] |
| --- | --- | --- | --- | --- |
| Cc1[nH]c(-c2ccc(OCCCN3CCCC3)cc2)[n+]([O-])c1C(=O)Nc1cccc(C(F)(F)C2CC2)c1 [Compound 174, 4-((3-(cyclopropyldifluoromethyl)phenyl)carbamoyl)-5-methyl-2-(4-(3-(pyrrolidin-1-yl)propoxy)phenyl)-1H-imidazole 3-oxide] | > 50 | 1 to 30 | Inactive |  |
| Cc1cccc(C)c1-c1cc(CN(C)C)cc(-c2[nH]c(C)c(C(=O)Nc3cccc(C(F)(F)C4CC4)c3)[n+]2[O-])c1 [Compound 175, 4-((3-(cyclopropyldifluoromethyl)phenyl)carbamoyl)-2-(5-((dimethylamino)methyl)-2′,6′-dimethyl-[1,1′-biphenyl]-3-yl)-5-methyl-1H-imidazole 3-oxide] | < 20 | < 1 | Inactive |  |
| CNC(=O)c1cccc(NC(=O)c2c(C)[nH]c(-c3cccc(-c4c(C)cccc4C)c3)[n+]2[O-])c1 [Compound 176, 2-(2′,6′-dimethyl-[1,1′-biphenyl]-3-yl)-5-methyl-4-((3-(methylcarbamoyl)phenyl)carbamoyl)-1H-imidazole 3-oxide] | < 20 | < 1 |  | > 30 |
| CNC(=O)c1cccc(NC(=O)c2c(C)[nH]c(-c3ccnc(-c4c(C)cccc4C)c3)[n+]2[O-])c1 [Compound 178, 2-(2-(2,6-dimethylphenyl)pyridin-4-yl)-5-methyl-4-((3-(methylcarbamoyl)phenyl)carbamoyl)-1H-imidazole 3-oxide] | < 20 | < 1 |  | > 30 |
| CNC(=O)c1cccc(NC(=O)c2c(C)[nH]c(-c3cc(N)cc(-c4c(C)cccc4C)c3)[n+]2[O-])c1 [Compound 180, 2-(5-amino-2′,6′-dimethyl-[1,1′-biphenyl]-3-yl)-5-methyl-4-((3-(methylcarbamoyl)phenyl)carbamoyl)-1H-imidazole 3-oxide] | < 20 | < 1 |  | > 30 |
| CNC(=O)c1cccc(NC(=O)c2c(C)[nH]c(-c3cc(NC)cc(-c4c(C)cccc4C)c3)[n+]2[O-])c1 [Compound 181, 2-(2′,6′-dimethyl-5-(methylamino)-[1,1′-biphenyl]-3-yl)-5-methyl-4-((3-(methylcarbamoyl)phenyl)carbamoyl)-1H-imidazole 3-oxide] | < 20 | < 1 |  | > 30 |
| Cc1cccc(C)c1-c1cc(OCCN2CCCC2)cc(-c2[nH]c(C)c(C(=O)Nc3cccc(C(F)(F)C4CC4)c3)[n+]2[O-])c1 [Compound 183, 4-((3-(cyclopropyldifluoromethyl)phenyl)carbamoyl)-2-(2′,6′-dimethyl-5-(2-(pyrrolidin-1-yl)ethoxy)-[1,1′-biphenyl]-3-yl)-5-methyl-1H-imidazole 3-oxide] | > 50 | < 1 | Inactive |  |
| CCC(F)(F)c1cccc(NC(=O)c2c(C)[nH]c(-c3cc(CCN4CCOCC4)c(OC)c(-c4c(C)cccc4C)c3)[n+]2[O-])c1 [Compound 192, 4-((3-(1,1-difluoropropyl)phenyl)carbamoyl)-2-(6-methoxy-2′,6′-dimethyl-5-(2-morpholinoethyl)-[1,1′-biphenyl]-3-yl)-5-methyl-1H-imidazole 3-oxide] | 20 to 50 | < 1 |  | > 30 |

Other lines, results leading:

| IC50 [1] [nM] | IC50 [2] [nM] | ACSS1 Biochemical IC50 (nM) [3] | IC50 [3] [nM] | SMILES |
| --- | --- | --- | --- | --- |
| < 20 | < 1 | Inactive |  | COc1ccc(-c2[nH]c(C)c(C(=O)Nc3cccc(C(F)(F)F)c3)[n+]2[O-])cc1-c1c(C)cccc1C [Compound 171, 2-(6-methoxy-2′,6′-dimethyl-[1,1′-biphenyl]-3-yl)-5-methyl-4-((3-(trifluoromethyl)phenyl)carbamoyl)-1H-imidazole 3-oxide] |
| < 20 | < 1 | Inactive |  | COc1ccc(-c2[nH]c(C)c(C(=O)Nc3cccc(C(N)=O)c3)[n+]2[O-])cc1-c1c(C)cccc1C [Compound 172, 4-((3-carbamoylphenyl)carbamoyl)-2-(6-methoxy-2′,6′-dimethyl-[1,1′-biphenyl]-3-yl)-5-methyl-1H-imidazole 3-oxide] |
| < 20 | < 1 |  | > 30 | CNC(=O)c1cccc(NC(=O)c2c(C)[nH]c(-c3ccc(F)c(-c4c(C)cccc4C)c3)[n+]2[O-])c1 [Compound 177, 2-(6-fluoro-2′,6′-dimethyl-[1,1′-biphenyl]-3-yl)-5-methyl-4-((3-(methylcarbamoyl)phenyl)carbamoyl)-1H-imidazole 3-oxide] |
| > 50 | 1 to 30 | Inactive |  | COc1ccc(-c2[nH]c(C)c(C(=O)Nc3cccc(S(=O)(=O)N(C)C)c3)[n+]2[O-])cc1-c1c(C)cccc1C [Compound 179, 4-((3-(N,N-dimethylsulfamoyl)phenyl)carbamoyl)-2-(6-methoxy-2′,6′-dimethyl-[1,1′-biphenyl]-3-yl)-5-methyl-1H-imidazole 3-oxide] |
| < 20 | < 1 | Inactive |  | CNC(=O)c1cccc(NC(=O)c2c(C)[nH]c(-c3cc(-c4c(C)cccc4C)cc(N(C)C)c3)[n+]2[O-])c1 [Compound 182, 2-(5-(dimethylamino)-2′,6′-dimethyl-[1,1′-biphenyl]-3-yl)-5-methyl-4-((3-(methylcarbamoyl)phenyl)carbamoyl)-1H-imidazole 3-oxide] |
| < 20 | < 1 | Inactive |  | CNC(=O)c1cccc(NC(=O)c2c(C)[nH]c(-c3ccc(OC)c(-c4c(F)cccc4F)c3)[n+]2[O-])c1 [Compound 184, 2-(2′,6′-difluoro-6-methoxy-[1,1′-biphenyl]-3-yl)-5-methyl-4-((3-(methylcarbamoyl)phenyl)carbamoyl)-1H-imidazole 3-oxide] |
| < 20 | < 1 |  | > 30 | CNC(=O)c1cccc(NC(=O)c2c(C)[nH]c(-c3ccc(OC)c(-c4c(C)cc(F)cc4C)c3)[n+]2[O-])c1 [Compound 185, 2-(4′-fluoro-6-methoxy-2′,6′-dimethyl-[1,1′-biphenyl]-3-yl)-5-methyl-4-((3-(methylcarbamoyl)phenyl)carbamoyl)-1H-imidazole 3-oxide] |
| < 20 | < 1 | Inactive |  | CNC(=O)c1cccc(NC(=O)c2c(C)[nH]c(-c3ccc(OC)c(-c4c(C)cccc4C)n3)[n+]2[O-])c1 [Compound 186, 2-(6-(2,6-dimethylphenyl)-5-methoxypyridin-2-yl)-5-methyl-4-((3-(methylcarbamoyl)phenyl)carbamoyl)-1H-imidazole 3-oxide] |
| 20 to 50 | < 1 | Inactive |  | CNS(=O)(=O)c1cccc(NC(=O)c2c(C)[nH]c(-c3ccc(OC)c(-c4c(C)cccc4C)c3)[n+]2[O-])c1 [Compound 187, 2-(6-methoxy-2′,6′-dimethyl-[1,1′-biphenyl]-3-yl)-5-methyl-4-((3-(N-methylsulfamoyl)phenyl)carbamoyl)-1H-imidazole 3-oxide] |
| < 20 | < 1 | Inactive |  | COc1ccc(-c2[nH]c(C)c(C(=O)Nc3cccc(-c4ncon4)c3)[n+]2[O-])cc1-c1c(C)cccc1C [Compound 190, 4-((3-(1,2,4-oxadiazol-3-yl)phenyl)carbamoyl)-2-(6-methoxy-2′,6′-dimethyl-[1,1′-biphenyl]-3-yl)-5-methyl-1H-imidazole 3-oxide] |
| < 20 | < 1 | Inactive |  | CNC(=S)c1cccc(NC(=O)c2c(C)[nH]c(-c3ccc(OC)c(-c4c(C)cccc4C)c3)[n+]2[O-])c1 [Compound 196, 2-(6-methoxy-2′,6′-dimethyl-[1,1′-biphenyl]-3-yl)-5-methyl-4-((3-(methylcarbamothioyl)phenyl)carbamoyl)-1H-imidazole 3-oxide] |
